ChEMBL document CHEMBL1817546, “The synthesized novel fluorinated compound (LJJ-10) induces death receptor- and mitochondria-dependent apoptotic cell death in the human osteogenic sarcoma U-2 OS cells” (Eur J Med Chem, 2011)
The source made the active and inactive calls. No cut-off for these calls is given here.

Experiments:
[1] = tested on: U2OS; test: Induction of apoptosis in human U2OS cells after 48 hrs by MTT assay in presence of anti-FasL monoclonal antibody; format: functional, cell-based
[2] = Induction of death receptor signaling-mediated apoptosis in human U2OS cells assessed as increase in Fas expression at 30 uM after 12 hrs using FasL-FITC mAb by flow cytometry (Rvb= 2.01+/-0.74 %); format: cell-based
[3] = tested on: U2OS; test: Induction of DNA damage in human U2OS cells by comet assay; format: functional, cell-based
[4] = tested on: COLO 205; test: Cytotoxicity against human COLO205 cells after 48 hrs by MTT assay; format: functional, cell-based; conditions: COLO 205, 48 h
[5] = Induction of death receptor signaling-mediated apoptosis in human U2OS cells assessed as increase caspase-3 activity measuring release of pNA at 30 uM after 48 hrs by spectrophotometry; format: cell-based
[6] = Induction of death receptor signaling-mediated apoptosis in human U2OS cells assessed as decrease in Bcl-2 level at 30 uM after 12 to 48 hrs by Western blotting; format: cell-based
[7] = Induction of death receptor signaling-mediated apoptosis in human U2OS cells assessed as increase in Fas level at 30 uM after 12 to 48 hrs by Western blotting method; format: cell-based
[8] = tested on: U2OS; test: Induction of apoptosis in human U2OS cells assessed as cell shrinking at 30 uM after 48 hrs by phase-contrast microscopic analysis; format: functional, cell-based
[9] = tested on: MCF7; test: Cytotoxicity against human MCF7 cells after 48 hrs by MTT assay; format: functional, cell-based; conditions: MCF7, 48 h
[10] = Induction of death receptor signaling-mediated apoptosis in human U2OS cells assessed decrease in as cell viability at 30 uM after 48 hrs by MTT assay in presence of caspase-9 inhibitor Z-LEHD-FMK; format: cell-based
[11] = Induction of death receptor signaling-mediated apoptosis in human U2OS cells assessed as decrease in cell viability at 30 uM after 48 hrs by MTT assay in presence of caspase-3 inhibitor […]; format: cell-based
[12] = tested on: MDA-MB-231; test: Cytotoxicity against human MDA-MB-231 cells after 48 hrs by MTT assay; format: functional, cell-based; conditions: MDA-MB-231, 48 h
[13] = Induction of death receptor signaling-mediated apoptosis in human U2OS cells assessed as increase caspase-8 activity measuring release of pNA at 30 uM after 48 hrs by spectrophotometry; format: cell-based
[14] = Induction of death receptor signaling-mediated apoptosis in human U2OS cells assessed as decrease in mitochondrial membrane potential at 30 uM after 2 to 12 hrs relative to control; format: cell-based; conditions: TDE = time-dependent effect
[15] = Induction of death receptor signaling-mediated apoptosis in human U2OS cells assessed as increase in caspase-9 level at 30 uM after 12 to 48 hrs by Western blotting; format: cell-based
[16] = tested on: HL-60; test: Cytotoxicity against human HL60 cells after 48 hrs by MTT assay; format: functional, cell-based; conditions: HL-60, 48 h
[17] = Induction of death receptor signaling-mediated apoptosis in human U2OS cells assessed as decrease in Bid level at 30 uM after 12 to 48 hrs by Western blotting; format: cell-based
[18] = tested on: U2OS; test: Cytotoxicity against human U2OS cells after 48 hrs by MTT assay; format: functional, cell-based
[19] = Induction of death receptor signaling-mediated apoptosis in human U2OS cells assessed as increase caspase-9 activity measuring release of pNA at 30 uM after 48 hrs by spectrophotometry; format: cell-based
[20] = tested on: U2OS; test: Cytotoxicity against human U2OS cells assessed as growth inhibition after 48 hrs by MTT assay relative to control; format: functional, cell-based
[21] = Induction of death receptor signaling-mediated apoptosis in human U2OS cells assessed as increase in caspase-8 level at 30 uM after 12 to 48 hrs by Western blotting method; format: cell-based
[22] = Cytotoxicity against human HT29-AK cells after 48 hrs by MTT assay; format: functional, cell-based
[23] = Induction of death receptor signaling-mediated apoptosis in human U2OS cells assessed as increase in Endo-G level at 30 uM after 12 to 48 hrs by Western blotting; format: cell-based
[24] = tested on: U-937; test: Cytotoxicity against human U937 cells after 48 hrs by MTT assay; format: functional, cell-based; conditions: U-937, 48 h
[25] = tested on: U2OS; test: Induction of apoptosis in human U2OS cells after 48 hrs by MTT assay in presence of ROS scavenger NAC; format: functional, cell-based
[26] = Induction of death receptor signaling-mediated apoptosis in human U2OS cells assessed as decrease in pro-caspase3 level at 30 uM after 12 to 48 hrs by Western blotting method; format: cell-based
[27] = Induction of death receptor signaling-mediated apoptosis in human U2OS cells assessed as increase in cytochrome c level at 30 uM after 12 to 48 hrs by Western blotting; format: cell-based
[28] = Induction of death receptor signaling-mediated apoptosis in human U2OS cells assessed as increase in FasL level at 30 uM after 12 to 48 hrs by Western blotting method; format: cell-based
[29] = tested on: U2OS; test: Induction of apoptosis in human U2OS cells after 48 hrs by MTT assay in presence of cyclosporine A; format: functional, cell-based
[30] = Induction of death receptor signaling-mediated apoptosis in human U2OS cells assessed as increase in Bax level at 30 uM after 12 to 48 hrs by Western blotting; format: cell-based
[31] = Induction of death receptor signaling-mediated apoptosis in human U2OS cells assessed as increase in production of reactive oxygen species at 30 uM after 2 to 12 hrs by flow cytometry relative to control; format: cell-based; conditions: TDE = time-dependent effect
[32] = Induction of death receptor signaling-mediated apoptosis in human U2OS cells assessed as increase in FADD level at 30 uM after 12 to 48 hrs by Western blotting method; format: cell-based
[33] = Induction of death receptor signaling-mediated apoptosis in human U2OS cells assessed as decrease in cell viability at 30 uM after 48 hrs by MTT assay in presence of caspase-8 inhibitor Z-IETD-FMK; format: cell-based
[34] = Induction of death receptor signaling-mediated apoptosis in human U2OS cells assessed as increase in FasL expression at 30 uM after 12 hrs using FasL-FITC mAb by flow cytometry (Rvb= 1.23+/-0.11 %); format: cell-based
[35] = tested on: U2OS; test: Induction of apoptosis in human U2OS cells assessed as cell rounding at 30 uM after 48 hrs by phase-contrast microscopic analysis; format: functional, cell-based
[36] = Induction of death receptor signaling-mediated apoptosis in human U2OS cells assessed as increase in AIF level at 30 uM after 12 to 48 hrs by Western blotting; format: cell-based
[37] = Induction of death receptor signaling-mediated apoptosis in human U2OS cells assessed as increase in Apaf-1 level at 30 uM after 12 to 48 hrs by Western blotting; format: cell-based
[38] = Cytotoxicity against human FOB cells assessed as reduction in cell number after 48 hrs by MTT assay relative to control; format: cell-based

SMILES: COc1cccc(Nc2nc(-c3cccc(F)c3)nc3ccc(F)cc23)c1
- Activity [1]: inactive
- Activity [2]: 76.2%
- Activity [3]: Dose-dependent effect
- IC50 [4]: 44.7 µM
- Activity [5]: Active
- Activity [6]: Active
- Activity [7]: Active
- Activity [8]: Active
- IC50 [9]: 46.3 µM
- Activity [10]: inactive
- Activity [11]: inactive
- IC50 [12]: 47.1 µM
- Activity [13]: Active
- Activity [14]: tde
- Activity [15]: Active
- IC50 [16]: 35.5 µM
- Activity [17]: Active
- IC50 [18]: 30.3 µM
- Activity [19]: Active
- growth inhibition (GI) [20]: Dose-dependent effect
- Activity [21]: Active
- IC50 [22]: 40.4 µM
- Activity [23]: Active
- IC50 [24]: 39.6 µM
- Activity [25]: inactive
- Activity [26]: Active
- Activity [27]: Active
- Activity [28]: Active
- Activity [29]: inactive
- Activity [30]: Active
- Activity [31]: tde
- Activity [32]: Active
- Activity [33]: inactive
- Activity [34]: 76.2%
- Activity [35]: Active
- Activity [36]: Active
- Activity [37]: Active
- Activity [38]: Non-toxic
